Source: patent publication US20140206624A1, “TREATMENT OF LEUKEMIA” (THE BRIGHAM AND WOMEN'S HOSPITAL, INC., priority 2011, published 2014)

How the values were obtained:
[1] = tested on: c-Jun, FoxO3 phosphorylation; test: Western blot of BM cells from mice that succumbed to AML; format: in vivo, mouse; conditions: pI-pC-treated Mx1-Cre+ mice that died of AML despite deletion of FoxO1/3/4
From the text: BM cells recovered from mice that succumbed to control or myrAKT-expressing MLL-AF9-induced AML (refer to FIG. 10G) were subjected to western blot with antibodies that specifically recognize AKT, Tubulin or the phosphorylated forms of FoxO3 (pFoxO3^S256) c-JUN (pc-JUN^S63).
BM cells recovered from mice that succumbed MLL-AF9-induced AML (refer to FIG. 5F) that were wild type or null for FoxO1/3/4 were subjected to western blot with antibodies that specifically recognize AKT, Tubulin or the phosphorylated forms of FoxO3 (pFoxO3^S256) c-JUN (pc-JUN^S63).
Based on the observation that the JNK/c-JUN signaling pathway is activated in response to FOXO inhibition (directly or via AKT activation), whether the activation of this pathway was also initiated in vivo was examined. To this end, the phosphorylation status of c-Jun in BM cells of saline and pI-pC-treated FoxO1/3/4^floxed; Mx1-Cre+; MLL-AF9 mice (FIG. 9F) that developed overt AML was examined. Enhanced pc-Jun^Ser63 in 75% of mice that died of AML despite efficient deletion of FoxO1/3/4 (FIGS. 13A and 10C-10F) was observed. The phosphorylation status of BM cells derived from control and myrAKT-expressing leukemic mice from FIG. 10H was evaluated.

MLL-AF9 induced AML = test: MLL-AF9 BMT assay, leukemic burden (spleen weight, WBC); format: in vivo, mouse; conditions: FoxO1/3/4 floxed
Experimental: MLL-AF9-positive FoxO1/3/4^floxed murine bone marrow (BM) cell recovered from a leukemic primary recipient mousecarrying the Mx1-Cre transgene (Mx1-Cre+) or not (Mx1-Cre−) were transplanted into sub-lethally irradiated secondary recipient mice. Fourteen days following transplant 50% of both Mx1-Cre+ and Mx1-Cre− mice were administered pI-pC and the remaining 50% of mice from each condition were given saline. At the first sign of leukemia all mice from each Mx1-Cre condition status were euthanized (Day 29 for Mx1-Cre−(saline and pI-pC treated) and Day 39 for Mx1-Cre+ (saline & pI-pC-treated)).
After transduction, infected cells were transplanted into lethally irradiated (2 doses of 450rad gIR separated by 12 hours) F1 FVB/C57/Bl6 mice. Recipient mice developed leukemia within 70-80 days with a median survival of 77 days. Mononuclear BM cells recovered from leukemic mice were then transplanted into secondary sub-lethally irradiated recipients. Fourteen days following transplant, secondary recipients were administered intra-peritoneally three doses of saline or 12.5 mg/kg pI-pC (GE Healthcare Life Sciences) every 2 days. Mice were then monitored for external (i.e. moribund) and internal (white blood cell counts) signs of leukemia.
To address whether FoxO1/3/4 are essential to maintain MLL-AF9 induced AML in vivo, a MLL-AF9 bone marrow transplant (BMT) assay was used in a mouse bearing homozygous Lox-P flanked (floxed) alleles of FoxO1/3/4 and the interferon-inducible Mx1-Cre transgene (FoxO1/3/4^floxed; Mx1-Cre+; MLL-AF9). MLL-AF9 transformed FoxO1/3/4^floxed BM cells without the Mx1-Cre transgene (FoxO1/3/4^floxed; Mx1-Cre−; MLL-AF9) were used as controls. Leukemia cells from each context (recovered from primary recipients displaying frank leukemia) were harvested and transplanted into sub-lethally irradiated recipients. Fourteen days post-transplant, secondary recipients receiving FoxO1/3/4^floxed; Mx1-Cre+; MLL-AF9 cells or FoxO1/3/4^floxed; Mx1-Cre−; MLL-AF9 controls were either administered polyinosine-polycytidyline (pI-pC) to induce excision of FoxO1/3/4 floxed alleles or saline control (FIG. 9A). At the first presentation of AML, all mice from each group (Mx1-Cre− versus Mx1-Cre+) were euthanized and assessed for leukemic burden as defined by spleen weight and peripheral white blood cell (WBC) counts. […] In contrast, pI-pC-treated FoxO1/3/4^floxed; Mx1-Cre+; MLL-AF9 transplant mice retained normal spleen weights and WBC counts (FIGS. 9B-D and 10A).

[2] = Mx1-Cre+, MLL-AF9 mice, pI-pC induces excision of FoxO1/3/4

polyinosine-polycytidyline [pI-pC]
mice with enhanced pc-Jun^Ser63 [1]: 75%
WBC counts (MLL-AF9 induced AML; [2]): normal
spleen weights (MLL-AF9 induced AML; [2]): normal
lymphoid-myeloid ratio in peripheral blood (MLL-AF9 induced AML; Mx1-Cre+, MLL-AF9 mice, data not shown): normal lymphoid-myeloid ratio
splenomegaly and leukocytosis (MLL-AF9 induced AML; Mx1-Cre−, MLL-AF9 recipients (no excision)): developed splenomegaly and leukocytosis
